From ChEMBL document CHEMBL3734724, “Anticancer efficacy of unique pyridine-based tetraindoles” (Eur J Med Chem, 2015)

Assays:
[1] = Cytotoxicity against human BT549 cells assessed as growth inhibition after 48 hrs by MTT assay; assay type: functional, cell-based; details: BT-549, 48 h
[2] = Cytotoxicity against human M10 cells assessed as growth inhibition after 48 hrs by MTT assay; assay type: cell-based; details: M10, 48 h
[3] = Cytotoxicity against human Hs578T cells assessed as growth inhibition at 20 uM after 48 hrs by MTT assay relative to control; assay type: functional; details: Hs-578T, read-out: GI
[4] = Ratio of compound IC50 to SK228 IC50 for human M10 cells; assay type: ADME, cell-based; details: read-out: Ratio IC50
MDA-MB-231 [5] = experiment: Cell cycle arrest in human MDA-MB-231 cells assessed as accumulation at G0/G1 phase at 0.8 uM after 24 hrs by propidium iodide staining-based flow cytometric analysis (reference value: 57 +/- 6%); assay type: functional
MDA-MB-231 [6] = experiment: Cell cycle arrest in human MDA-MB-231 cells assessed as accumulation at S phase at 0.4 uM after 24 hrs by propidium iodide staining-based flow cytometric analysis (reference value: 32 +/- 4%); assay type: functional
MDA-MB-231 [7] = experiment: Cell cycle arrest in human MDA-MB-231 cells assessed as accumulation at G2/M phase at 1.6 uM after 24 hrs by propidium iodide staining-based flow cytometric analysis (reference value: 12 +/- 2%); assay type: functional
MDA-MB-231 [8] = experiment: Cell cycle arrest in human MDA-MB-231 cells assessed as accumulation at G0/G1 phase at 0.4 uM after 48 hrs by propidium iodide staining-based flow cytometric analysis (reference value: 57.8 +/- 0.7%); assay type: functional
MDA-MB-231 [9] = experiment: Cell cycle arrest in human MDA-MB-231 cells assessed as accumulation at S phase at 0.4 uM after 48 hrs by propidium iodide staining-based flow cytometric analysis (reference value: 26 +/- 3%); assay type: functional
MDA-MB-231 [10] = experiment: Cell cycle arrest in human MDA-MB-231 cells assessed as accumulation at G2/M phase at 0.4 uM after 48 hrs by propidium iodide staining-based flow cytometric analysis (reference value: 16 +/- 3%); assay type: functional
MDA-MB-231 [11] = experiment: Cell cycle arrest in human MDA-MB-231 cells assessed as accumulation at sub-G1 phase at 1.6 uM after 48 hrs by propidium iodide staining-based flow cytometric analysis relative to control; assay type: functional
MDA-MB-231 [12] = experiment: Cell cycle arrest in human MDA-MB-231 cells assessed as accumulation at G2/M phase after 48 hrs by propidium iodide staining-based flow cytometric analysis; assay type: functional
MDA-MB-231 [13] = experiment: Induction of DNA damage in human MDA-MB-231 cells after 48 hrs by alkaline comet assay; assay type: functional, cell-based
MDA-MB-231 [14] = experiment: Antitumor activity against luciferase-expressing human MDA-MB-231 cells xenografted in ip dosed nude mouse assessed as tumor growth inhibition administered every other day measured on day 54; assay type: functional, organism-based

## Oc1ccc2[nH]cc(C(c3ccc(C(c4c[nH]c5ccc(O)cc45)c4c[nH]c5ccc(O)cc45)nc3)c3c[nH]c4ccc(O)cc34)c2c1
[1]
  IC50: 4 µM
[2]
  IC50: > 20 µM
[3]
  inhibition of growth at 20 µM: 25%
[4]
  selectivity ratio: 4
MDA-MB-231 [5]
  Activity: 54%
MDA-MB-231 [6]
  Activity: 33%
MDA-MB-231 [7]
  Activity: 20%
MDA-MB-231 [8]
  Activity: 54%
MDA-MB-231 [9]
  Activity: 28%
MDA-MB-231 [10]
  Activity: 18%
MDA-MB-231 [11]
  Activity: 23%
MDA-MB-231 [12]
  Activity: Dose-dependent effect
MDA-MB-231 [13]
  Activity: Dose-dependent effect
MDA-MB-231 [14]
  TGI: Dose-dependent effect
